Here are results for nine compounds from article PMC9516332 (Frontiers in Oncology, 2022).

Each structure is given as a SMILES string.

One assay has as its system EGFR-mutant cell lines. The experiment in a line: Cell viability assay, EGFR-mutant versus EGFR wild-type cell lines. Format: cell-based. The conditions noted are these: MANOVA; for lower IC50 (higher potency) in EGFR-mutant compared to EGFR wild-type cell lines: on average.
The subject of assay [1] is ERBB2-amplified cell lines. Put plainly: Cell viability assay, ERBB2-amplified versus non-amplified cell lines. To be noted: MANOVA. The format is cell-based. The method, then: The effect of compounds on cell viability was determined by measuring intracellular ATP content as an indirect readout of cell number ([15]). […] A vehicle-treated control (0.4% (v/v) DMSO) was included in quadruplicate on the same assay plate to determine maximum cell growth. The final DMSO concentration was 0.4% (v/v) in all wells. After incubation for another 72 hours, ATP content in each well was measured as described previously. […] When the cell doubling deviated > 2-fold from the historic doubling as determined in multiple independent experiments, the experiment was invalidated and repeated. […] IC50 values of kinase inhibitors were calculated by fitting a 4-parameter logistic curve to the percentage viability values using IDBS XLfit5 (IDBS, Guildford, United Kingdom). […] . For some compounds, biphasic curves were measured in one or more cell lines, indicating a dual mechanism of action in these cell lines ([29]). […] For all bioinformatic analyses, ^10log(IC50 [nmol/L]) values were used.
Cell lines were classified as having an alteration in a specific cancer gene if at least one allele was altered by point mutation, insertion, deletion, fusion, or amplification. The mutation, fusion, and amplification status of the cell lines was retrieved from the COSMIC cell lines project (version 80) ([23]), Cancer Cell Line Encyclopedia (CCLE), DepMap (version 22Q1) ([16]), and Cellosaurus ([30]) databases. In order to ensure that genomic alterations included in subsequent analyses were relevant to cancer growth and drug response, mutations were only included when they were either reported as a hotspot mutation in Cancer Hotspots ([31]), described as oncogenic and gain-of-function in OncoKB or JAX CKB, or described as pathogenic in the literature. […] J82 was therefore annotated as FGFR3 wild-type.
All statistical analyses were performed in R (version 4.1.2), unless otherwise indicated. A two-sided Mann-Whitney test was performed for two-group comparisons. […] . Multivariate analysis of variance (MANOVA) was performed for multi-group comparison.

The target of assay [2] is panel of 255 wild-type kinases (Homo sapiens, UniProt P00519). The conditions noted are these: ABL kinase assay; 1 µmol/L single concentration; ref DOI: 10.1158/1535-7163.MCT-18-0877; cited from earlier work.
The target in assay [3] is panel of 255 wild-type kinases (Homo sapiens, UniProt P04629). To be noted: kinase TRKA; 1 µmol/L single concentration; ref DOI: 10.1158/1535-7163.MCT-18-0877; cited from earlier work.
The target of assay [4] is panel of 255 wild-type kinases (Homo sapiens, UniProt P08631). To be noted: kinase HCK; 1 µmol/L single concentration; ref DOI: 10.1158/1535-7163.MCT-18-0877; cited from earlier work.
Assay [5] concerns the target panel of 255 wild-type kinases (Homo sapiens, UniProt P22694). To be noted: kinase PKACβ; 1 µmol/L single concentration; ref DOI: 10.1158/1535-7163.MCT-18-0877; cited from earlier work.
Assay [6] concerns the target panel of 255 wild-type kinases (Homo sapiens, UniProt P49840). To be noted: kinase GSK3α; 1 µmol/L single concentration; ref DOI: 10.1158/1535-7163.MCT-18-0877; cited from earlier work.
The target in assay [7] is panel of 255 wild-type kinases (Homo sapiens, UniProt P51812). The conditions noted are these: kinase RSK2; 1 µmol/L single concentration; ref DOI: 10.1158/1535-7163.MCT-18-0877; cited from earlier work.
Assay [8] deals with panel of 255 wild-type kinases (Homo sapiens, UniProt Q00534). To be noted: CDK6/CycD3 kinase assay; 1 µmol/L single concentration; ref DOI: 10.1158/1535-7163.MCT-18-0877; cited from earlier work.
In assay [9] the target is panel of 255 wild-type kinases (Homo sapiens, UniProt Q04759). The conditions noted are these: kinase PKCθ; 1 µmol/L single concentration; ref DOI: 10.1158/1535-7163.MCT-18-0877; cited from earlier work.
For assay [10], the target named is panel of 255 wild-type kinases (Homo sapiens, UniProt Q16539). To be noted: p38α; 1 µmol/L single concentration; ref DOI: 10.1158/1535-7163.MCT-18-0877; cited from earlier work.
Assay [11] has as its target panel of 255 wild-type kinases (Homo sapiens, UniProt Q8N4C8). The conditions noted are these: MINK; 1 µmol/L single concentration; ref DOI: 10.1158/1535-7163.MCT-18-0877; cited from earlier work.
Assay [12] concerns the target panel of 255 wild-type kinases (Homo sapiens, UniProt Q9H422). The conditions noted are these: kinase HIPK3; 1 µmol/L single concentration; ref DOI: 10.1158/1535-7163.MCT-18-0877; cited from earlier work.
The target of another assay is MEK1 (Homo sapiens, UniProt Q02750). Put plainly: Enzyme-linked immunosorbent assay (ELISA) of enzymatic activity, IC50. Format: biochemical. For orientation: An ELISA detects its analyte on a solid surface through an enzyme-linked reagent.
Assay [13] has as its target panel of 255 wild-type kinases (Homo sapiens, UniProt Q16654). The conditions noted are these: kinase PDHK4; 1 µmol/L single concentration; ref DOI: 10.1158/1535-7163.MCT-18-0877; cited from earlier work.
A further assay deals with T1, FGFR1 (Homo sapiens, UniProt P11362).
T1 construct: purchased Carna Biosciences (only by web pointer)
The experiment in a line: Biochemical kinase assay (MSA), IC50.

The target in another assay is T2, FGFR2 (Homo sapiens, UniProt P21802).
T2 construct: purchased Carna Biosciences (only by web pointer)
Put plainly: Biochemical kinase assay (MSA), IC50.

A further assay concerns the target T3, FGFR3 (Homo sapiens, UniProt P22607).
T3 construct: purchased Carna Biosciences (only by web pointer)
Put plainly: Biochemical kinase assay (MSA), IC50.

The target of the next assay is T4, FGFR4 (Homo sapiens, UniProt P22455).
T4 construct: purchased Carna Biosciences (only by web pointer)
The experiment in a line: Biochemical kinase assay (MSA), IC50.

The subject of another assay is FGFR-altered cell lines. The experiment in a line: Cell viability assay, FGFR-altered versus FGFR wild-type cell lines. Format: cell-based. The conditions noted are these: MANOVA.
Assay [14] concerns RET-altered cell lines (LC-2/ad, TT). The experiment in a line: Cell viability assay, RET-altered versus RET wild-type cell lines. The format is cell-based. The conditions noted are these: for lower IC50 in RET-altered versus wild-type cell lines: MANOVA.
Another assay deals with ALK-altered cell lines. The experiment in a line: Cell viability assay, ALK-altered versus ALK wild-type cell lines. The format is cell-based. The conditions noted are these: MANOVA.

One may read the IC50 as the concentration that gives 50% inhibition. Read a low IC50 as inhibition by little substance.

With `C=CC(=O)N1CCC[C@@H](n2nc(-c3ccc(Oc4ccccc4)cc3)c3c(N)ncnc32)C1` [ibrutinib], the “lower IC50 (higher potency) in EGFR-mutant compared to EGFR wild-type cell lines” value in the assay with EGFR-mutant cell lines was 28 fold. For the same compound, the “preferential targeting of ERBB2-amplified versus non-amplified cell lines” value in assay [1] stood at 254 fold. In assay [2], the “%-inhibition ABL” value is given as 8%. Moreover, the “%-inhibition at 1 µmol/L, TRKA” value in assay [3] is given as 59%. The “%-inhibition at 1 µmol/L, HCK” value in [4] was 100%. In assay [5], the “%-inhibition at 1 µmol/L, PKACβ” value was -9%. Further, the “%-inhibition at 1 µmol/L, GSK3α” value in [6] was 2.24%. The “%-inhibition at 1 µmol/L, RSK2” value in [7] is 7.41%. In addition, the “%-inhibition CDK6/CycD3” value in assay [8] is 4.32%. Moreover, in [9], the “%-inhibition at 1 µmol/L, PKCθ” value is reported as -1.13%. Also, the “%-inhibition, p38α” value in assay [10] is on record as -2.71%. The “%-inhibition, MINK” value in assay [11] is -6.41%. The “%-inhibition at 1 µmol/L, HIPK3” value in assay [12] is listed as 1.67%.
In the case of `O=C(c1ccc(F)c(F)c1Nc1ccc(I)cc1F)N1CC(O)([C@@H]2CCCCN2)C1` [cobimetinib], the IC50 on MEK1 is 61 nM. Besides, in [2], the “%-inhibition ABL” value was -4%. In [3], the “%-inhibition at 1 µmol/L, TRKA” value is given as 18%. Also, the “%-inhibition at 1 µmol/L, HCK” value in [4] is given as -3.63%. Further, the “%-inhibition at 1 µmol/L, PKACβ” value in assay [5] is reported as -6.51%. Besides, the “%-inhibition at 1 µmol/L, GSK3α” value in assay [6] is reported as 3.42%. Besides, the “%-inhibition at 1 µmol/L, RSK2” value in [7] is on record as 6%. Also, in assay [8], the “%-inhibition CDK6/CycD3” value was 0.129%. Besides, the “%-inhibition at 1 µmol/L, PKCθ” value in assay [9] is listed as -4.34%. Besides, the “%-inhibition, p38α” value in assay [10] is given as -5.49%. The “%-inhibition at 1 µmol/L, PDHK4” value in assay [13] is -1.13%. Moreover, the “%-inhibition, MINK” value in assay [11] is -2.67%. Moreover, the “%-inhibition at 1 µmol/L, HIPK3” value in assay [12] was 2.74%.
Take `C=CC(=O)N1CCC([C@@H]2CCNc3c(C(N)=O)c(-c4ccc(Oc5ccccc5)cc4)nn32)CC1` [zanubrutinib]: the “lower IC50 (higher potency) in EGFR-mutant compared to EGFR wild-type cell lines” value in the assay with EGFR-mutant cell lines is 8 fold. Moreover, the “preferential targeting of ERBB2-amplified versus non-amplified cell lines” value in assay [1] stood at 45 fold.
On MEK1, `Cn1cnc2c(F)c(Nc3ccc(Br)cc3F)c(C(=O)NOCCO)cc21` [binimetinib] returned an IC50 of 503 nM.
Take `COc1ccc(CN2C3CC2CN(c2ccc(-c4cc(OCC(C)(C)O)cn5ncc(C#N)c45)cn2)C3)cn1` [selpercatinib]: the IC50 against FGFR1 came to 46 nM; on FGFR2, 16 nM; on FGFR3, 50 nM; against FGFR4, 260 nM. Moreover, the “activity in FGFR-altered versus wild-type cell lines” value with FGFR-altered cell lines was “around ten times more active”. Besides, the “lower IC50 in RET-altered versus wild-type cell lines” value in assay [14] stood at 232 fold. Also, the “potency in the RET-altered cell lines compared to pralsetinib” value in assay [14] (cell viability) is “three-fold more potent”.
Consider `CC#CC(=O)N1CCC[C@H]1c1nc(-c2ccc(C(=O)Nc3ccccn3)cc2)c2c(N)nccn12` [acalabrutinib], for which the “preferential targeting of EGFR-mutant cell lines” value in the assay with EGFR-mutant cell lines is on record as “did not significantly target”. Besides, the “preferential targeting of ERBB2-amplified versus non-amplified cell lines” value in [1] was 44 fold. Moreover, the “%-inhibition ABL” value in assay [2] was -2.81%. The “%-inhibition at 1 µmol/L, TRKA” value in assay [3] is 13%. Also, in assay [4], the “%-inhibition at 1 µmol/L, HCK” value is 0.452%. In [5], the “%-inhibition at 1 µmol/L, PKACβ” value was -13%. Also, the “%-inhibition at 1 µmol/L, GSK3α” value in [6] is recorded as 2.47%. In [7], the “%-inhibition at 1 µmol/L, RSK2” value was 0.054%. In addition, the “%-inhibition CDK6/CycD3” value in assay [8] was 3%. Also, the “%-inhibition at 1 µmol/L, PKCθ” value in assay [9] is listed as -8%. Further, in assay [10], the “%-inhibition, p38α” value was -0.752%. Also, the “%-inhibition at 1 µmol/L, PDHK4” value in assay [13] is 0.391%. In assay [11], the “%-inhibition, MINK” value is reported as -1.13%. Besides, the “%-inhibition at 1 µmol/L, HIPK3” value in assay [12] was -12%.
For `CN1CCN(c2ccc(C(=O)Nc3n[nH]c4ccc(Cc5cc(F)cc(F)c5)cc34)c(NC3CCOCC3)c2)CC1` [entrectinib], the “difference in IC50 between ALK-altered and ALK wild-type cell lines” value with ALK-altered cell lines turned out to be 12 fold.
For the compound `CO[C@]1(C(=O)N[C@@H](C)c2ccc(-n3cc(F)cn3)nc2)CC[C@H](c2nc(C)cc(Nc3cc(C)[nH]n3)n2)CC1` [pralsetinib], the IC50 is 11 nM against FGFR1, 27 nM against FGFR2, 50 nM against FGFR3 and 183 nM against FGFR4. In the assay with FGFR-altered cell lines, the “activity in FGFR-altered versus wild-type cell lines” value was “around ten times more active”. The “lower IC50 in RET-altered versus wild-type cell lines” value in assay [14] came out at 76 fold.
On to `CCc1nc(C(N)=O)c(Nc2ccc(N3CCC(N4CCN(C)CC4)CC3)c(OC)c2)nc1NC1CCOCC1` [gilteritinib], for which, in the assay on ALK-altered cell lines, the “difference in IC50 between ALK-altered and ALK wild-type cell lines” value was 55 fold.
